In experiment [1] the target is T1, Z. mobilis Tgt ("wild type" Tgt = Tgt(Tyr106Phe)) (Zymomonas mobilis, UniProt P28720, Y106F/C158V/A232S/V233G).
T1 construct: recombinant from pET9d-ZM-Y106F in E. coli BL21(DE3)/pLysS, purified; homodimer; all variants including "wild type" carry Tyr106Phe
T1 sequence (P28720 2-386 Y106F/C158V/A232S/V233G): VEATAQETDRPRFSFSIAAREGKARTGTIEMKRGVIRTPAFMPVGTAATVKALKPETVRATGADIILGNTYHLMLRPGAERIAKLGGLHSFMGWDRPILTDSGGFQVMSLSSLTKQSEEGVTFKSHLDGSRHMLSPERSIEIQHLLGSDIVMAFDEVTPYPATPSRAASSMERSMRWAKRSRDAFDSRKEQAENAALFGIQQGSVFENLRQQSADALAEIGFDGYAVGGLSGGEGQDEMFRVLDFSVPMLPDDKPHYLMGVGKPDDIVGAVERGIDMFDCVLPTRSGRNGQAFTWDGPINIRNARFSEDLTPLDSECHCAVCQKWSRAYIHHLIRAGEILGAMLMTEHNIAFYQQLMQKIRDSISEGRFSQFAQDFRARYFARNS
As to the kind of experiment: X-ray crystal structure of complex. It is filed as binding.

Experiment [2] has as its target T2, Z. mobilis Tgt ("wild type" Tgt = Tgt(Tyr106Phe)) (Zymomonas mobilis, UniProt P28720, V233G/Y106F).
T2 construct: recombinant from pET9d-ZM-Y106F in E. coli BL21(DE3)/pLysS, purified; homodimer; all variants including "wild type" carry Tyr106Phe
T2 sequence (P28720 2-386 Y106F/V233G): T1 sequence (P28720 2-386 Y106F/C158V/A232S/V233G) with V157C, S231A
Description: inhibition of [[…]-3H]-guanine incorporation into tRNA(Tyr). The conditions noted are these: read-out: K ic. The experiment is classed as biochemical.

Experiment [3] concerns the target T3, Z. mobilis Tgt ("wild type" Tgt = Tgt(Tyr106Phe)) (Zymomonas mobilis, UniProt P28720, Y106F).
T3 construct: recombinant from pET9d-ZM-Y106F in E. coli BL21(DE3)/pLysS, purified; homodimer; all variants including "wild type" carry Tyr106Phe
Described as above. It is filed as biochemical. The conditions noted are these: read-out: K ic.
Target sequence in this assay (P28720 2-386 Y106F): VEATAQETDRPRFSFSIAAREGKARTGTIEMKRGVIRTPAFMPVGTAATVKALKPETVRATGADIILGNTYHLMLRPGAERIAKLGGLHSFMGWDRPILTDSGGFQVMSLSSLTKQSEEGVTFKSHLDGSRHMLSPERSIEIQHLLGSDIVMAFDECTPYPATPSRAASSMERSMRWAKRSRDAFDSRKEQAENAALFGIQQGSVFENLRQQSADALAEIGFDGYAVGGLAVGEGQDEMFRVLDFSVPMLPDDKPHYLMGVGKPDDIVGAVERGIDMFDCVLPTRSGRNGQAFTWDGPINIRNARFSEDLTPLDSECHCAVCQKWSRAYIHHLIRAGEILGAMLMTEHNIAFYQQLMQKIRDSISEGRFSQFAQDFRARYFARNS

Experiment [4] deals with T4, Z. mobilis Tgt ("wild type" Tgt = Tgt(Tyr106Phe)) (Zymomonas mobilis, UniProt P28720, C158V/V233G/Y106F).
T4 construct: recombinant from pET9d-ZM-Y106F in E. coli BL21(DE3)/pLysS, purified; homodimer; all variants including "wild type" carry Tyr106Phe
T4 sequence (P28720 2-386 Y106F/C158V/V233G): T1 sequence (P28720 2-386 Y106F/C158V/A232S/V233G) with S231A
The experiment is described as above. The experiment is classed as biochemical. The conditions noted are these: read-out: K ic.

The target of experiment [5] is T3, Z. mobilis Tgt ("wild type" Tgt = Tgt(Tyr106Phe)). The description is as above. The experiment is classed as biochemical. The conditions noted are these: read-out: K ic. This is another data set of the same source.
Target sequence in this assay (P28720 2-386 Y106F/C158V): as the sequence (P28720 2-386 Y106F) above, with C157V counted along it

Substitutions are numbered along the chain they refer to. Read-outs that look alike come from different tables or passages of the source.

As for `NCc1c[nH]c2nc(N)[nH]c(=O)c12` [preQ1, 7-aminomethyl-7-deazaguanine], in experiment [1] (soaking), the “X-ray crystal structure of complex” value was “in complex with preQ1 and in complex with queuine”.

With `Nc1nc2[nH]cc(CN[C@H]3C=C[C@H](O)[C@@H]3O)c2c(=O)[nH]1` [queuine, 7-(((4,5-cis-dihydroxy-2-cyclopenten-1-yl)amino)methyl)-7-deazaguanine], the Ki in experiment [2] came out at 3.1 ± 0.2 µM; in experiment [3], 3.8 ± 0.6 µM; in experiment [4] it was 8.9 ± 1.2 µM; in experiment [5], 3.8 ± 0.5 µM. Besides, the “X-ray crystal structure of complex” value in experiment [1] (cocrystallisation) is “in complex with preQ1 and in complex with queuine”.

The values are drawn from publication PMC3660597, “Investigation of Specificity Determinants in Bacterial tRNA-Guanine Transglycosylase Reveals Queuine, the Substrate of Its Eucaryotic Counterpart, as Inhibitor” (PLoS ONE, 2013).
